According to ChEMBL document CHEMBL5150044, “Macrocyclization of Quinazoline-Based EGFR Inhibitors Leads to Exclusive Mutant Selectivity for EGFR L858R and Del19” (J Med Chem, 2022):
Positions count from the first letter of the chain named. ≈ marks a conversion by molar mass, not a printed value. Calls of active or inactive are those of the source. The calls are words filed in the database; no cut-off is given here.

Legend:
[1] = tested on: BaF3; assay: cells; conditions: Mus musculus, BaF3, 72 h
[2] = tested on: BaF3; assay: cells; conditions: Mus musculus, BaF3, 72 h; remark: listed apart in the source
[3] = tested on: BaF3; assay: cells; conditions: Mus musculus, BaF3, 72 h; remark: listed apart in the source
[4] = tested on: BaF3; assay: cells; type: functional, cell-based; conditions: Mus musculus, BaF3, 72 h
[5] = tested on: BaF3; assay: cells; conditions: Mus musculus, BaF3, 72 h; remark: listed apart in the source
[6] = tested on: BaF3; assay: cells; conditions: Mus musculus, BaF3, 72 h; remark: listed apart in the source
Description: Antiproliferative activity against mouse BaF3 cells expressing EGFR WT assessed as cell viability measured after 72 hrs hrs by CellTiter Glo assay

[7] = tested on: BaF3; assay: cells; type: functional, cell-based; conditions: Mus musculus, BaF3, 72 h; remark: listed apart in the source
[8] = tested on: BaF3; assay: cells; conditions: Mus musculus, BaF3, 72 h; remark: listed apart in the source
[9] = tested on: BaF3; assay: cells; conditions: Mus musculus, BaF3, 72 h; remark: listed apart in the source
[10] = tested on: BaF3; assay: cells; type: functional, cell-based; conditions: Mus musculus, BaF3, 72 h; remark: listed apart in the source
[11] = tested on: BaF3; assay: cells; conditions: Mus musculus, BaF3, 72 h; remark: listed apart in the source
[12] = tested on: BaF3; assay: cells; type: functional, cell-based; conditions: Mus musculus, BaF3, 72 h; remark: listed apart in the source
Description: Antiproliferative activity against mouse BaF3 cells expressing Del19 assessed as cell viability measured after 72 hrs hrs by CellTiter Glo assay

[13] = biological target: T1, Mitogen-activated protein kinase 1 and 3 (ERK2 and ERK1) (Mus musculus) (UniProt P63085+Q63844); type: cell-based; conditions: BaF3, dose 10-1000 nM, time 8.0 hrs
T1 sequence (P63085 whole entry, looked up): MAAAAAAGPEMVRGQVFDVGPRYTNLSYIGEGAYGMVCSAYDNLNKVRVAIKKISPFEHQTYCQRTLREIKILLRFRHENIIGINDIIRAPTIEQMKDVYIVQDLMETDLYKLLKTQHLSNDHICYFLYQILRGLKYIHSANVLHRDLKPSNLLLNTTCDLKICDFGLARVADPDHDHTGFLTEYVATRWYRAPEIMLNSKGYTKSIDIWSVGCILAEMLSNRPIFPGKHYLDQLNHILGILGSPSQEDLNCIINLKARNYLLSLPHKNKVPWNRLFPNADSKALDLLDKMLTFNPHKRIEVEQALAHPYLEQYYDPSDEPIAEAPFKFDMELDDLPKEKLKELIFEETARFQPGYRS
T1 sequence (Q63844 whole entry, looked up): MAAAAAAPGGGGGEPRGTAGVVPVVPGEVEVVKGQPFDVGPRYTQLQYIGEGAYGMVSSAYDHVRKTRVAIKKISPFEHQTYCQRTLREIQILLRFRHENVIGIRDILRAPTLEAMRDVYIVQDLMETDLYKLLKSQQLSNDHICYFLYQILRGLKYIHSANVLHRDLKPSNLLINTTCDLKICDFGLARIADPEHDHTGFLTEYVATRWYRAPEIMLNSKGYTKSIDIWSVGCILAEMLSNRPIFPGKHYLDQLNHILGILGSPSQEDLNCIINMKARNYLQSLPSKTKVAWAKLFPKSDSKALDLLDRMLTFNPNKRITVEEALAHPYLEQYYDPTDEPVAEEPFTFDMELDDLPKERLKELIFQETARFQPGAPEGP

[14] = biological target: T1, Mitogen-activated protein kinase 1 and 3 (ERK2 and ERK1) (Mus musculus); assay: Inhibition of ERK1/2 phosphorylation in mouse BaF3 cells harboring Del19 mutant assessed as ERK1/2 phosphorylation at 10 to 1000 nM incubated for 8 hrs by Western blot analysis; type: cell-based; conditions: dose 10-1000 nM
[15] = biological target: RAC-alpha serine/threonine-protein kinase (Mus musculus) (UniProt P31750); type: cell-based; conditions: BaF3, dose 10-1000 nM, time 8.0 hrs
RAC-alpha serine/threonine-protein kinase (Mus musculus), sequence (P31750 whole entry): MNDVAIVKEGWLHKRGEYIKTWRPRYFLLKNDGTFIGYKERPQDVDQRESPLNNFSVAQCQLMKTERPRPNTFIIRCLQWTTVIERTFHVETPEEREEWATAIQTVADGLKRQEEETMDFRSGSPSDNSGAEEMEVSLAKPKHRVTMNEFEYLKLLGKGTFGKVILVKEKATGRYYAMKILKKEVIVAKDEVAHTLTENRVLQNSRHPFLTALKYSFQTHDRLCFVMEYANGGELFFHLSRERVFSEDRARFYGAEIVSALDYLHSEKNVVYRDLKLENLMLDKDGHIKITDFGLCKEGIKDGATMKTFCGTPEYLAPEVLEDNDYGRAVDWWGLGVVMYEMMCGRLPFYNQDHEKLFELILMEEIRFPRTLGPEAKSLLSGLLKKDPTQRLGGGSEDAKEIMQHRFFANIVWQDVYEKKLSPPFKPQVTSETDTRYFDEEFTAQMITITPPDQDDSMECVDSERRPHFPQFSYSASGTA

[16] = biological target: T1, Mitogen-activated protein kinase 1 and 3 (ERK2 and ERK1) (Mus musculus); assay: Inhibition of ERK1/2 phosphorylation in mouse BaF3 cells harboring L858R mutant assessed as ERK1/2 phosphorylation at 10 to 1000 nM incubated for 8 hrs by Western blot analysis; type: cell-based; conditions: dose 10-1000 nM
[17] = tested on: Epidermal growth factor receptor (Homo sapiens), P04626+P00533+Q15303+P21860 [L858R]; conditions: Mus musculus; BaF3; dose 10-1000 nM, time 8.0 hrs
[18] = biological target: T1, Mitogen-activated protein kinase 1 and 3 (ERK2 and ERK1) (Mus musculus); type: cell-based; conditions: BaF3, dose 10-1000 nM, time 8.0 hrs; remark: listed apart in the source
[19] = biological target: RAC-alpha serine/threonine-protein kinase (Mus musculus) (UniProt P31750); assay: Inhibition of AKT phosphorylation in mouse BaF3 cells harboring Del19 mutant assessed as […] phosphorylation at 10 to 1000 nM incubated for 8 hrs by Western blot analysis; type: cell-based; conditions: dose 10-1000 nM
[20] = biological target: RAC-alpha serine/threonine-protein kinase (Mus musculus) (UniProt P31750); assay: Inhibition of AKT phosphorylation in mouse BaF3 cells harboring L858R mutant assessed as […] phosphorylation at 10 to 1000 nM incubated for 8 hrs by Western blot analysis; type: cell-based; conditions: dose 10-1000 nM
[21] = biological target: RAC-alpha serine/threonine-protein kinase (Mus musculus) (UniProt P31750); type: cell-based; conditions: BaF3, dose 10-1000 nM, time 8.0 hrs; remark: listed apart in the source
[22] = biological target: Epidermal growth factor receptor (Homo sapiens, UniProt P00533)
Epidermal growth factor receptor (Homo sapiens, UniProt P00533), sequence (P00533 whole entry): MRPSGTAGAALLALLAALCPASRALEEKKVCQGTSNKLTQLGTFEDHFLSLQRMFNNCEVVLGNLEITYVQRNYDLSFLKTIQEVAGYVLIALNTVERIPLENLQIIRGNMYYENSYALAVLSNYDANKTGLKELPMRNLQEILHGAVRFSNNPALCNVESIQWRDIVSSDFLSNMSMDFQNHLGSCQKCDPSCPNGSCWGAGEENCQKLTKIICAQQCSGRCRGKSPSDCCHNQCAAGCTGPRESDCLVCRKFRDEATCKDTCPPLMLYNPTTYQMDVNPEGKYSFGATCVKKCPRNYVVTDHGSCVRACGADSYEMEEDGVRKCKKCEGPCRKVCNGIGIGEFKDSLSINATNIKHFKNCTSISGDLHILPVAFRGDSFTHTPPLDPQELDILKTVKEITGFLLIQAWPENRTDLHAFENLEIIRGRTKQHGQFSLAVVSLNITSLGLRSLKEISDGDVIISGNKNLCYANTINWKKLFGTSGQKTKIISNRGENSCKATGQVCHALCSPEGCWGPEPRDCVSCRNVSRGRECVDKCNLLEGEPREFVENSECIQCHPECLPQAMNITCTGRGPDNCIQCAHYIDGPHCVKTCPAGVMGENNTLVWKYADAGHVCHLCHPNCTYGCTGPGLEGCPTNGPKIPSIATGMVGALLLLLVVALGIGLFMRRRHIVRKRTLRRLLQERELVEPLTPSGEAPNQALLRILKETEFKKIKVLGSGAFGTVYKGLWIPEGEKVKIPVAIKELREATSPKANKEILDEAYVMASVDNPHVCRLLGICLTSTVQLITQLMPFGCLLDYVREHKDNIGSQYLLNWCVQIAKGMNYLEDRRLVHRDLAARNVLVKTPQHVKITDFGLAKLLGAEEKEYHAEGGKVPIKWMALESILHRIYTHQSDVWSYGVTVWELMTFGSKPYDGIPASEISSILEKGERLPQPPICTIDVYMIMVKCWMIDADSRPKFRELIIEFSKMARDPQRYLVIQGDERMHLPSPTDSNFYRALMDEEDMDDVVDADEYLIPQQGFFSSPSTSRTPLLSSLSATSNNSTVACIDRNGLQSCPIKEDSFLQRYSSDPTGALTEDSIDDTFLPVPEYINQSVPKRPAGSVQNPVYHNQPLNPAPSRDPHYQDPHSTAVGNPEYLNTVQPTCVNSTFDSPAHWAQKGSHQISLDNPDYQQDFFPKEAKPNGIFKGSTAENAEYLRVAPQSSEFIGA

[23] = biological target: Epidermal growth factor receptor (Homo sapiens, UniProt P00533, EX19DEL)
Epidermal growth factor receptor (Homo sapiens, UniProt P00533, EX19DEL), sequence (P00533 whole entry, looked up, stated change not applied): as the sequence (P00533 whole entry) above

[24] = biological target: Epidermal growth factor receptor (Homo sapiens, UniProt P00533, L858R)
Epidermal growth factor receptor (Homo sapiens, UniProt P00533, L858R), sequence (P00533 25-1210 L858R limits assumed): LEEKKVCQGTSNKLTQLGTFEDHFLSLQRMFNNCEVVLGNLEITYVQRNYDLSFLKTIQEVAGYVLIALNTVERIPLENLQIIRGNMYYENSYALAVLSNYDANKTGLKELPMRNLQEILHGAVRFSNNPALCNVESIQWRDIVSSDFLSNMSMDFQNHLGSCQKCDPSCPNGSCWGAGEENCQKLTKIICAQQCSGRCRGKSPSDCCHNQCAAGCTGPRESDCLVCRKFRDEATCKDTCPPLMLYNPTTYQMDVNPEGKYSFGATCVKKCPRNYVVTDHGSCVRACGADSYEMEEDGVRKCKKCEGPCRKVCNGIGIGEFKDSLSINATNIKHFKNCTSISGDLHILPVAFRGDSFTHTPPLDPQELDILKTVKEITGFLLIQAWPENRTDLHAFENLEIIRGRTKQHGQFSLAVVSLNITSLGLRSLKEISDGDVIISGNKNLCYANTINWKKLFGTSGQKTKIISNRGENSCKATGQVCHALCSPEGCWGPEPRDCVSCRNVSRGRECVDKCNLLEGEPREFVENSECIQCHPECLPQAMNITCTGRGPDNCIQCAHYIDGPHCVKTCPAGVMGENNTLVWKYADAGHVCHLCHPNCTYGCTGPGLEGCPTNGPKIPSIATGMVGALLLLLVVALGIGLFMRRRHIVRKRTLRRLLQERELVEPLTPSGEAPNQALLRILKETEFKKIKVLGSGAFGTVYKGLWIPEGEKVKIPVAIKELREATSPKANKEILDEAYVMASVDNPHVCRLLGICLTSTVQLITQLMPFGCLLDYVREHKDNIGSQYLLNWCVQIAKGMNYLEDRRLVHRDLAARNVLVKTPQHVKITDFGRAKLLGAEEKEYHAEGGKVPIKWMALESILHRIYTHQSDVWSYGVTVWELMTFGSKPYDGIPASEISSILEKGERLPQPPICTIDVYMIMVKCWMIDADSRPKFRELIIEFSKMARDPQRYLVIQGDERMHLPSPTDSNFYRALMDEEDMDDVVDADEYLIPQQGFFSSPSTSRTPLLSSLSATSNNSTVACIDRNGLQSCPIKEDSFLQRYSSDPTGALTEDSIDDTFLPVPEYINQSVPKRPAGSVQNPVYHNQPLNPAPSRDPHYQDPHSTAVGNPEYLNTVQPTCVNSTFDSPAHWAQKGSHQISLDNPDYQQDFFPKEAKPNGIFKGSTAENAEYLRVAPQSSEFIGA

[25] = tested on: BaF3; assay: Inhibition of EGFR Del19 mutant in mouse BaF3 cells assessed as protein phosphorylation at 10 to 1000 nM incubated for 8 hrs by Western blot analysis; type: cell-based; conditions: dose 10-1000 nM
[26] = tested on: Receptor-type tyrosine-protein kinase FLT3 (Homo sapiens), P36888 [UNDEFINED MUTATION]; assay: Inhibition of FLT3 ITD/D835V mutant (unknown origin) assessed as percent of control activity at 1 uM by radiometric protein kinase-reaction biology assay; values are per cent of control
[27] = Solubility in 10% DMSO after 24 hrs by HPLC analysis; type: physicochemical
[28] = tested on: T2, Receptor-type tyrosine-protein kinase FLT3 (Homo sapiens), P36888 [D835Y]; assay: Inhibition of FLT3 D835Y mutant (unknown origin) assessed as percent of control activity at 1 uM by radiometric protein kinase-reaction biology assay; values are per cent of control
T2 sequence (whole entry): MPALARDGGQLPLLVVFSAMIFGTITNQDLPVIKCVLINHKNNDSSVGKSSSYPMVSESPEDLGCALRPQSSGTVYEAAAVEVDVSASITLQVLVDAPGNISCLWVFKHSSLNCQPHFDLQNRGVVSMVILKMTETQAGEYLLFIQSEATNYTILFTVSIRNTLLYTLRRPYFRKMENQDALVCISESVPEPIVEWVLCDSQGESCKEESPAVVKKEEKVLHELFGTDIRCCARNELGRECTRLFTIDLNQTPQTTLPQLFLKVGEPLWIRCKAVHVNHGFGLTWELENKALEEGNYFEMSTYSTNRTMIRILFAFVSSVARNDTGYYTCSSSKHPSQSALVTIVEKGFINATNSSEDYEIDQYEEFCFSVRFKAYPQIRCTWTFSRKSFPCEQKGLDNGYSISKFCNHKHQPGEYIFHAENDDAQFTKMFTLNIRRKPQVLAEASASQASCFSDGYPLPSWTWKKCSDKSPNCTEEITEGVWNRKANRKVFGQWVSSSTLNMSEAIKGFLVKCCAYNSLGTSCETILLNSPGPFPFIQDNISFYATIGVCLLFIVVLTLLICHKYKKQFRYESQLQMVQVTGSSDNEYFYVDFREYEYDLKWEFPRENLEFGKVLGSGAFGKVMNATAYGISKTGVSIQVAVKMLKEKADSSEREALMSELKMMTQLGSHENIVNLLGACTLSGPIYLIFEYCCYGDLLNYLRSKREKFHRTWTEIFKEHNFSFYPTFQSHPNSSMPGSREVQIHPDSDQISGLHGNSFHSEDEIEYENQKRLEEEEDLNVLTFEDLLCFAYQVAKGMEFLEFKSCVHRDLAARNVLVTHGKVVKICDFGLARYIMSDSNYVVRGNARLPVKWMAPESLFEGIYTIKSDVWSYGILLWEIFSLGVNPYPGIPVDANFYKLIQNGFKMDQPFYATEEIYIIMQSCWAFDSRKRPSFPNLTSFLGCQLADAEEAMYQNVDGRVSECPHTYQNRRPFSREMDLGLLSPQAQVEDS

[29] = tested on: BaF3; type: cell-based; conditions: Mus musculus, dose 10-1000 nM, time 8.0 hrs
[30] = species on record: Homo sapiens; assay: Inhibition of EGFR […] mutant (unknown origin) assessed as percent of control activity at 1 uM by radiometric protein kinase-reaction biology assay; values are per cent of control
[31] = tested on: T3, Receptor-type tyrosine-protein kinase FLT3 (Homo sapiens), P36888 [D835V]; assay: Inhibition of FLT3 D835V mutant (unknown origin) assessed as percent of control activity at 1 uM by radiometric protein kinase-reaction biology assay; values are per cent of control
T3 sequence (whole entry): T2 sequence (whole entry) with Y835V

[32] = Solubility in 100% DMSO after 24 hrs by HPLC analysis; type: physicochemical
[33] = tested on: BaF3; type: cell-based; conditions: Mus musculus, dose 10-1000 nM, time 8.0 hrs; remark: listed apart in the source
[34] = Solubility in neutral aqueous solutions after 24 hrs by HPLC analysis; type: physicochemical
[35] = biological target: Epidermal growth factor receptor (Homo sapiens, UniProt P00533, L858R/T790M)

| SMILES | IC50 [22] | IC50 [23] | IC50 [24] | also measured |
| --- | --- | --- | --- | --- |
| C=CC(=O)Nc1cc(Nc2ncc(C(=O)OC(C)C)c(-c3cn(C)c4ccccc34)n2)c(OC)cc1N(C)CCN(C)C [MOBOCERTINIB] | – | – | – | IC50 [1]: 47.6 nM; IC50 [2]: 1.9 nM; IC50 [3]: 8.9 nM; IC50 [4]: 9 nM; IC50 [5]: 27.1 nM; IC50 [6]: 8.3 nM; IC50 [7]: 1060 nM; IC50 [8]: 1130 nM; IC50 [9]: 3.81 µM; IC50 [10]: 10.1 nM; IC50 [11]: 2170 nM; IC50 [12]: 5 nM |
| COc1cc2ncnc3c2cc1OCCOCCOCCOc1ccc(Cl)cc1N3 | > 100 µM | 0.3 nM | 0.7 nM | inhibition [13]: Active; inhibition [14]: Active; inhibition [15]: Active; inhibition [16]: Active; inhibition [17]: Active; inhibition [18]: Active; inhibition [19]: Active; inhibition [20]: Active; inhibition [21]: Active |
| COc1cc2ncnc3c2cc1OCCOCCOCCOc1ccccc1N3 | > 100 µM | 1870 nM | 87.6 nM | – |
| COc1cc2ncnc3c2cc1OCCOCCOc1cc(ccc1Cl)N3 | – | 493 nM | 1120 nM | – |
| COc1cc2ncnc3c2cc1OCCOCCOCCOc1cccc(Cl)c1N3 | > 100 µM | 42.9 nM | 32.6 nM | – |
| COc1cc2ncnc3c2cc1OCCCCCCOc1cc(Cl)ccc1N3 | > 100 µM | 63500 nM | > 100000 nM | – |
| COc1cc2ncnc3c2cc1OCCOCCOc1cccc(c1)N3 | – | 33900 nM | – | – |
| COc1cc2ncnc3c2cc1OCCOCCOc1cc(F)c(Cl)cc1N3 | – | – | – | inhibition [25]: Active; residual activity [26]: 33%; solubility at 24 h [27]: 0.283 µg/mL (≈ 0.697 µM); residual activity [28]: 25%; inhibition [29]: Active; residual activity [30]: 26%; residual activity [31]: 5%; solubility [32]: 2.592 mg/mL (≈ 6390 µM); inhibition [33]: Active; solubility at 24 h [34]: 0.131 µg/mL (≈ 0.323 µM) |
| COc1cc2ncnc3c2cc1OCCCCCCOc1c(Cl)cccc1N3 | – | 3030 nM | > 100000 nM | – |
| COc1cc2ncnc3c2cc1OCCCCCCOc1ccccc1N3 | – | 491 nM | – | – |
| COc1cc2ncnc3c2cc1OCCOCCOc1ccc(Cl)c(c1)N3 | > 100 µM | 70400 nM | 19900 nM | – |
| COc1cc2ncnc3c2cc1OCCOCCOc1cc(Cl)ccc1N3 | > 100 µM | – | – | – |
| COc1cc2ncnc3c2cc1OCCOCCOc1cc(Cl)cc(c1)N3 | – | 6300 nM | – | – |
| COc1cc2ncnc3c2cc1OCCCCCCOc1ccc(Cl)cc1N3 | > 100 µM | 19.6 nM | 739 nM | – |
| COc1cc2ncnc3c2cc1OCCCCCCOc1cc(F)c(Cl)cc1N3 | > 100 µM | 235 nM | 655 nM | – |
| COc1cc2ncnc3c2cc1OCCOCCOCCOc1cc(Cl)ccc1N3 | > 100 µM | 16.2 nM | 38.3 nM | – |
| Fc1cc2c(cc1Cl)Nc1ncnc3ccc(cc13)OCCOCCO2 | – | 1030 nM | – | IC50 [2]: 5360 nM; IC50 [7]: 2760 nM; IC50 [12]: 3100 nM |
| COc1cc2ncnc3c2cc1OCCOCCOc1ccccc1N3 | > 100 µM | 155 nM | 685 nM | IC50 [35]: 1680 nM |
| COc1cc2ncnc3c2cc1OCCOCCOc1ccc(Cl)cc1N3 | > 100 µM | 24.9 nM | 128 nM | – |
| COc1cc2ncnc3c2cc1OCCOCCOCCOc1cc(F)c(Cl)cc1N3 | > 100 µM | 1.3 nM | 2.8 nM | inhibition [13]: Active; inhibition [14]: Active; inhibition [15]: Active; inhibition [16]: Active; inhibition [17]: Active; inhibition [18]: Active; inhibition [19]: Active; inhibition [20]: Active; inhibition [21]: Active |
| COc1cc2ncnc3c2cc1OCCOCCOc1c(Cl)cccc1N3 | – | 509 nM | – | – |
| COc1cc2ncnc3c2cc1OCCCCCCOc1cccc(Cl)c1N3 | > 100 µM | 56.8 nM | 275 nM | – |
